In patent US20250074943A1, “DLL3 BINDING PEPTIDES AND USES THEREOF” (AMGEN INC., priority 2021, published 2025):
Like-named read-outs stand apart in the source and are kept apart here. Bridge positions count the residues as written; N and C are the ends. Peptide text beside a SMILES is read from it.

Target: T1, recombinant DLL3 ectodomain (rhDLL3-Fc) (Homo sapiens, UniProt Q9NYJ7)
T1 construct: The recombinant DLL3 ectodomain (rhDLL3-Fc) was biotinylated; Fc
T1 sequence (Q9NYJ7 27-492 limits assumed): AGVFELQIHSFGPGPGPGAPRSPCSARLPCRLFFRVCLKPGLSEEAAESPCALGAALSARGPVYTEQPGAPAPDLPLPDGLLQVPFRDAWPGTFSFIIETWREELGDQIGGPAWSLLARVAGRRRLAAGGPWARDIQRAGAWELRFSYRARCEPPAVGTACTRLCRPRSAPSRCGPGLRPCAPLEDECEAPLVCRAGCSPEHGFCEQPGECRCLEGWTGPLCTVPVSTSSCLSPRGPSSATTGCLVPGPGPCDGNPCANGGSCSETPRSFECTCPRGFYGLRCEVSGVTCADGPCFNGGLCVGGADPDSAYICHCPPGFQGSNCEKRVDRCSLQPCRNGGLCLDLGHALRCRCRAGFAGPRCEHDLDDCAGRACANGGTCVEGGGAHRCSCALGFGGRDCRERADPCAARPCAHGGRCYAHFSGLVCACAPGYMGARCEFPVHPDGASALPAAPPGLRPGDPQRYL
Test: Binding kinetic assay using Bio-layer interferometry (BLI)
Conditions: for binding mode to DLL3: peptides at 20, 4 and 0.8 μM, fit to 1:1 Langmuir binding model; for affinity: wider dose-response 10×KD to 0.1×KD
Procedure: Binding kinetic assays were performed using Bio-layer interferometry (BLI) technology. The recombinant DLL3 ectodomain (rhDLL3-Fc) was biotinylated using EZ-Link Sulfo-NHS-LC-LC-Biotin Kit according to the manufacturer's protocol (Pierce by Thermo Fisher Scientific). The recombinant protein was incubated with an excess of NHS-LC-LC Biotin ester, in a molar ratio of 1:3 (protein: biotin), at 25° C. for 90 min. The un-reacted biotin ester was removed by subsequent buffer exchange on 0.5 ml Zeba spin desalting columns 7K MWCO (Pierce by Thermo Fisher Scientific).

[1] = Table 4, ± values from three independent experiments, read-out: RT (residence time) (converted)
[2] = range over the seven peptides, read-out: residence time
[3] = Table 4, ± values from three independent experiments

residence time [1]	binding mode to DLL3	residence time [2]	affinity	RT (residence time) [3]	Structure (SMILES)
1.09 min	dose-response saturable binding	1 to 3 min	double-digit nM range	–	CC(C)[C@H](NC(=O)[C@@H](NC(=O)[C@H](CCC(=O)O)NC(=O)[C@H](C)N)[C@@H](C)O)C(=O)N[C@@H](CCC(=O)O)C(=O)N[C@@H](Cc1ccccc1)C(=O)N[C@@H](Cc1ccc(O)cc1)C(=O)NCC(=O)N[C@H]1CSSC[C@@H](C(=O)N[C@H](C(=O)N[C@@H](Cc2c[nH]c3ccccc23)C(N)=O)[C@@H](C)O)NC(=O)[C@H]([C@@H](C)O)NC(=O)[C@H](Cc2ccc(O)cc2)NC(=O)[C@H](CCC(=O)O)NC(=O)[C@H](Cc2ccc(O)cc2)NC(=O)[C@H](C)NC(=O)[C@H](CC(=O)O)NC(=O)CNC(=O)[C@H]([C@@H](C)O)NC1=O [PepSP1147] (H-AETVEFYGCTGDAYEYTCTW-NH2; disulfide 9-18; N-terminus assumed)
0.717 min	dose-response saturable binding	–	–	–	CC(C)[C@@H]1NC(=O)[C@H](CO)NC(=O)[C@@H](NC(=O)CNC(=O)[C@H](Cc2ccc(O)cc2)NC(=O)[C@H](Cc2ccccc2)NC(=O)[C@H](CCC(=O)O)NC(=O)[C@@H](NC(=O)[C@@H](NC(=O)[C@H](CCC(=O)O)NC(=O)[C@H](C)N)[C@@H](C)O)C(C)C)CSSC[C@@H](C(=O)N[C@@H](CO)C(=O)N[C@@H](Cc2c[nH]c3ccccc23)C(N)=O)NC(=O)[C@H]([C@@H](C)O)NC(=O)[C@H](Cc2c[nH]c3ccccc23)NC(=O)CNC(=O)[C@H](CC(=O)O)NC(=O)[C@H](C)NC(=O)[C@H](CC(N)=O)NC1=O [PepSP1170] (H-AETVEFYGCSVNADGWTCSW-NH2; disulfide 9-18)
1.68 min	dose-response saturable binding	–	–	–	CC(C)C[C@H](NC(=O)[C@@H]1CSSC[C@H](NC(=O)CNC(=O)[C@H](Cc2ccc(O)cc2)NC(=O)[C@H](Cc2ccccc2)NC(=O)[C@H](CCC(=O)O)NC(=O)[C@@H](NC(=O)[C@@H](NC(=O)[C@H](CCC(=O)O)NC(=O)[C@H](C)N)[C@@H](C)O)C(C)C)C(=O)N[C@@H](Cc2ccc(O)cc2)C(=O)NCC(=O)N[C@@H](CCC(=O)O)C(=O)N[C@@H](CCC(N)=O)C(=O)N[C@@H](CCC(=O)O)C(=O)N[C@@H](CCC(N)=O)C(=O)N[C@@H](Cc2c[nH]c3ccccc23)C(=O)N[C@@H]([C@@H](C)O)C(=O)N1)C(=O)N[C@@H](Cc1c[nH]c2ccccc12)C(N)=O [PepSP1173] (H-AETVEFYGCYGEQEQWTCLW-NH2; disulfide 9-18)
0.783 min	dose-response saturable binding	–	–	–	CC(C)C[C@H](NC(=O)[C@@H]1CSSC[C@H](NC(=O)CNC(=O)[C@H](Cc2ccc(O)cc2)NC(=O)[C@H](Cc2ccccc2)NC(=O)[C@H](CCC(=O)O)NC(=O)[C@@H](NC(=O)[C@@H](NC(=O)[C@H](CCC(=O)O)NC(=O)[C@H](C)N)[C@@H](C)O)C(C)C)C(=O)N[C@@H](CCC(=O)O)C(=O)N[C@@H]([C@@H](C)O)C(=O)N[C@@H](Cc2ccc(O)cc2)C(=O)N[C@@H](CO)C(=O)NCC(=O)NCC(=O)N[C@@H](Cc2c[nH]c3ccccc23)C(=O)N[C@@H]([C@@H](C)O)C(=O)N1)C(=O)N[C@@H](Cc1c[nH]c2ccccc12)C(N)=O [PepSP1167] (H-AETVEFYGCETYSGGWTCLW-NH2; disulfide 9-18)

More lines, now with the values behind:

Structure (SMILES)	residence time [1]	binding mode to DLL3	residence time [2]	affinity	RT (residence time) [3]
C[C@@H](O)[C@@H]1NC(=O)CNC(=O)[C@H]([C@@H](C)O)NC(=O)[C@@H](NC(=O)CNC(=O)[C@@H](N)Cc2c[nH]c3ccccc23)CSSC[C@@H](C(=O)N[C@@H](Cc2c[nH]c3ccccc23)C(=O)N[C@@H](Cc2c[nH]c3ccccc23)C(N)=O)NC(=O)[C@H]([C@@H](C)O)NC(=O)[C@H](CCC(=O)O)NC(=O)[C@H](CC(N)=O)NC(=O)CNC(=O)[C@H](Cc2c[nH]c3ccccc23)NC1=O [PepSP1213] (H-WGCTGTWGNETCWW-NH2; disulfide 3-12; N-terminus assumed)	0.0227 min	–	–	–	–
CC(C)[C@H](NC(=O)[C@@H]1CSSC[C@H](NC(=O)CNC(=O)[C@H](CCCNC(=N)N)NC(=O)[C@H](Cc2ccccc2)NC(=O)[C@H](CCC(=O)O)NC(=O)[C@@H](NC(=O)[C@@H](NC(=O)[C@H](CCC(=O)O)NC(=O)[C@H](C)N)[C@@H](C)O)C(C)C)C(=O)N[C@@H]([C@@H](C)O)C(=O)NCC(=O)N[C@@H](CC(N)=O)C(=O)N[C@@H](C(C)C)C(=O)N[C@@H](Cc2ccc(O)cc2)C(=O)N[C@@H](CC(=O)O)C(=O)N[C@@H](Cc2c[nH]c3ccccc23)C(=O)N[C@@H]([C@@H](C)O)C(=O)N1)C(=O)N[C@@H](Cc1c[nH]c2ccccc12)C(N)=O [PepSP1160] (H-AETVEFRGCTGNVYDWTCVW-NH2; disulfide 9-18)	0.783 min	dose-response saturable binding	–	–	–
CC(C)C[C@@H]1NC(=O)[C@@H](NC(=O)[C@H](Cc2ccc(O)cc2)NC(=O)[C@H](CC(=O)O)NC(=O)[C@H](Cc2ccccc2)NC(=O)[C@H](CCC(=O)O)NC(=O)[C@@H](NC(=O)[C@@H](NC(=O)[C@H](CCC(=O)O)NC(=O)[C@H](C)N)[C@@H](C)O)C(C)C)CSSC[C@@H](C(=O)N[C@@H](CCC(N)=O)C(=O)N[C@@H](CC(N)=O)C(N)=O)NC(=O)CNC(=O)[C@H](Cc2c[nH]c3ccccc23)NC(=O)[C@H](C)NC(=O)[C@H](CC(=O)O)NC(=O)[C@@H]2CCCN2C(=O)[C@H](C)NC(=O)[C@H](Cc2c[nH]c3ccccc23)NC1=O [PepSP1159] (H-AETVEFDYCLWAPDAWGCQN-NH2; disulfide 9-18; N-terminus assumed)	0.1 min	dose-response saturable binding	–	–	–
CC(C)[C@H](NC(=O)[C@@H](NC(=O)[C@H](CCC(=O)O)NC(=O)[C@H](C)N)[C@@H](C)O)C(=O)N[C@@H](CCC(=O)O)C(=O)N[C@@H](Cc1ccccc1)C(=O)N[C@@H](Cc1ccc(O)cc1)C(=O)NCC(=O)N[C@H]1CSSC[C@@H](C(=O)N[C@@H](C)C(=O)N[C@@H](Cc2c[nH]c3ccccc23)C(N)=O)NC(=O)[C@H]([C@@H](C)O)NC(=O)[C@H](Cc2ccc(O)cc2)NC(=O)[C@H](CC(=O)O)NC(=O)[C@H](Cc2c[nH]c3ccccc23)NC(=O)CNC(=O)[C@H](Cc2ccc(O)cc2)NC(=O)[C@H](Cc2ccc(O)cc2)NC(=O)[C@H](CCC(N)=O)NC1=O [PepSP1176] (H-AETVEFYGCQYYGWDYTCAW-NH2; disulfide 9-18)	1.12 min	dose-response saturable binding	–	–	–
CC(C)[C@H](NC(=O)[C@@H](NC(=O)[C@H](CCC(=O)O)NC(=O)[C@H](C)N)[C@@H](C)O)C(=O)N[C@@H](CCC(=O)O)C(=O)N[C@@H](Cc1ccccc1)C(=O)N[C@@H](Cc1c[nH]c2ccccc12)C(=O)N[C@@H](CO)C(=O)N[C@H]1CSSC[C@@H](C(=O)NCC(=O)N[C@@H](Cc2c[nH]c3ccccc23)C(N)=O)NC(=O)[C@H](CO)NC(=O)[C@H](Cc2ccc(O)cc2)NC(=O)[C@H]([C@@H](C)O)NC(=O)[C@H](Cc2ccc(O)cc2)NC(=O)[C@H](CCC(=O)O)NC(=O)[C@H](CC(=O)O)NC(=O)[C@H](C)NC(=O)[C@H](C)NC(=O)CNC(=O)CNC(=O)[C@H](Cc2c[nH]c3ccccc23)NC(=O)[C@H](Cc2c[nH]c3ccccc23)NC(=O)[C@H](CCCCN)NC1=O [PepSP1182] (H-AETVEFWSCKWWGGAADEYTYSCGW-NH2; disulfide 9-23; N-terminus assumed)	1.61 min	dose-response saturable binding	1 to 3 min	double-digit nM range	–
CC(C)[C@H](NC(=O)[C@@H](NC(=O)[C@H](CCC(=O)O)NC(=O)[C@H](C)N)[C@@H](C)O)C(=O)N[C@@H](CCC(=O)O)C(=O)N[C@@H](Cc1ccccc1)C(=O)N[C@@H](Cc1c[nH]c2ccccc12)C(=O)N[C@@H](CC(=O)O)C(=O)N[C@H]1CSSC[C@@H](C(=O)N[C@H](C(=O)N[C@@H](Cc2c[nH]c3ccccc23)C(N)=O)[C@@H](C)O)NC(=O)[C@H]([C@@H](C)O)NC(=O)[C@H](Cc2c[nH]c3ccccc23)NC(=O)[C@H](CC(=O)O)NC(=O)[C@H](CC(=O)O)NC(=O)[C@H]([C@@H](C)O)NC(=O)[C@H](CC(N)=O)NC(=O)CNC(=O)[C@H](Cc2c[nH]c3ccccc23)NC1=O [PepSP1161] (H-AETVEFWDCWGNTDDWTCTW-NH2; disulfide 9-18; N-terminus assumed)	1.46 min	dose-response saturable binding	1 to 3 min	double-digit nM range	87.8 ± 6 s
CC(C)C[C@H](NC(=O)[C@H](Cc1ccccc1)NC(=O)[C@H](CCC(=O)O)NC(=O)[C@@H](NC(=O)[C@@H](NC(=O)[C@H](CCC(=O)O)NC(=O)[C@H](C)N)[C@@H](C)O)C(C)C)C(=O)NCC(=O)N[C@H]1CSSC[C@@H](C(=O)N[C@H](C(=O)N[C@@H](Cc2c[nH]c3ccccc23)C(N)=O)C(C)C)NC(=O)[C@H]([C@@H](C)O)NC(=O)[C@H](Cc2c[nH]c3ccccc23)NC(=O)[C@H](CCC(=O)O)NC(=O)[C@H](CO)NC(=O)[C@H](CC(N)=O)NC(=O)[C@H](CC(=O)O)NC(=O)CNC(=O)[C@H](Cc2c[nH]cn2)NC1=O [PepSP1163] (H-AETVEFLGCHGDNSEWTCVW-NH2; disulfide 9-18)	2.78 min	dose-response saturable binding	1 to 3 min	double-digit nM range	166.8 ± 19.5 s
